Data as given in EP4725941A1, “ARYLAMIDE DERIVATIVE HAVING ANTITUMOR ACTIVITY” (priority 2020, dated 2021).
Read-outs that look alike come from different tables or passages of the source.

What was measured:
BRAF = molecular target: T1, BRAF (Homo sapiens, UniProt P15056); assay: BRAF-inhibiting activity, time-resolved fluorescence-fluorescence resonance energy transfer assay; format: biochemical
T1 construct: purchased Eurofins Genomics KK; (BRAF); Thermo Fisher Scientific Inc. (MEK1)
Protocol: The BRAF-inhibiting activity of the compounds listed in Table 3 below was evaluated by the time-resolved fluorescence-fluorescence resonance energy transfer assay as described below.

A549 = assay: Cell proliferation-inhibiting activity (ATP in viable cells, CellTiter-Glo), A549; format: cell-based, human; conditions: A549, 96 h, read-out: A549 IC50
NCI-H2122 = assay: Cell proliferation-inhibiting activity (ATP in viable cells, CellTiter-Glo), NCI-H2122; format: cell-based, human; conditions: NCI-H2122, 96 h, read-out: NCI-H2122 IC50
[1] = Human liver microsome stability; format: in vitro ADME; conditions: human liver microsomes, pH 7.4
MEK1 = molecular target: T2, MEK1 (Homo sapiens, UniProt Q02750); assay: MEK1-inhibiting activity, fluorescent polarization method (CRAF/MEK1/ERK2 cascade, IMAP); format: biochemical
T2 construct: purchased Thermo Fisher Scientific Inc. (MEK1, CRAF); Carna Biosciences, Inc. (ERK2)
T2 sequence (Q02750 whole entry): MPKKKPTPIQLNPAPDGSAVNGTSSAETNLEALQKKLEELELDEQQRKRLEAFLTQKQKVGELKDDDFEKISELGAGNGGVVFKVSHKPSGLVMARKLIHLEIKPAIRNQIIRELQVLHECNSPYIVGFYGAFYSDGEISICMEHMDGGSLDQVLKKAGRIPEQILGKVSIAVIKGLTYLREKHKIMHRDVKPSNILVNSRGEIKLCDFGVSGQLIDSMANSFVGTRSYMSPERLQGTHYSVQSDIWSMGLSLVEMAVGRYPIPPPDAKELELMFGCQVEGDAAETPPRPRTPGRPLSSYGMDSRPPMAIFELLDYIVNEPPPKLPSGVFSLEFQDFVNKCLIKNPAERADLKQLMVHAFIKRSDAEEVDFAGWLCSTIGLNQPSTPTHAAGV
Protocol: The MEK1-inhibiting activity of the compounds listed in Table 3 below were evaluated by the fluorescent polarization method as described below.

[2] = human lung cancer cells, 4 days

T1 sequence (P15056 417-766 limits assumed): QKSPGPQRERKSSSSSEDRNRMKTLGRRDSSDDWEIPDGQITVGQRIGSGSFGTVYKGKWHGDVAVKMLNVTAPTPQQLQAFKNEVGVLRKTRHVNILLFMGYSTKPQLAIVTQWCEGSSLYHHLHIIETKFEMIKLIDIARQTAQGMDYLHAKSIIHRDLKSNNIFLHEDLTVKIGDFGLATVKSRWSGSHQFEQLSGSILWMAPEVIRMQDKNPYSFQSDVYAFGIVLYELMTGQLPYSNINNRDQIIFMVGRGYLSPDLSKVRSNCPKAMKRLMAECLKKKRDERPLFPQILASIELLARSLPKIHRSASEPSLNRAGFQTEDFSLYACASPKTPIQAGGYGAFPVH

SMILES | IC50 (BRAF; read-out: BRAF IC50; Table 3) [nM] | IC50 (A549; [2]) [nM] | IC50 (NCI-H2122; [2]) [nM] | microsomal CLint at 0.99 µM [1] [µL/min/mg] | IC50 (MEK1; Table 3, read-out: MEK1 IC50) [nM] | IC50 (BRAF; Table 3; read-out: BRAF IC50) [nM] | IC50 (A549; Homo sapiens) [nM] | IC50 (NCI-H2122; Homo sapiens) [nM] | IC50 (MEK1) [nM]
CNS(=O)(=O)Nc1nccc(Cc2cc(C(N)=O)c(Nc3ccc4sccc4c3)c(F)c2F)c1F [Compound H-2, 2-(1-Benzothiophen-5-ylamino)-3,4-difluoro-5-[[3-fluoro-2-(methylsulfamoylamino)pyridin-4-yl]methyl]benzamide] | 2 | 31 | 16 | 77 | 49 |  |  |  | 
NC(=O)c1cc(Cc2cccc(NS(N)(=O)=O)c2F)c(F)c(F)c1Nc1ccc(I)cc1F [Compound E-8, 3,4-Difluoro-2-(2-fluoro-4-iodoanilino)-5-[[2-fluoro-3-(sulfamoylamino)phenyl]methyl]benzamide] | 2 | 3 | 2 | 1 | 137 |  |  |  | 
COCCNS(=O)(=O)Nc1cccc(Cc2cc(C(N)=O)c(Nc3ccc(I)cc3F)c(F)c2F)c1F [Compound D-1, 3,4-Difluoro-2-(2-fluoro-4-iodoanilino)-5-[[2-fluoro-3-(2-methoxyethylsulfamoylamino)phenyl]methyl]benzamide] | 1 | 9 | 5 | 25 | 96 |  |  |  | 
C=Cc1ccc(Nc2c(C(N)=O)cc(Cc3ccnc(NS(=O)(=O)NC)c3F)c(F)c2F)c(F)c1 [Compound A-19, 2-(4-Ethenyl-2-fluoroanilino)-3,4-difluoro-5-[[3-fluoro-2-(methylsulfamoylamino)pyridin-4-yl]methyl]benzamide] |  |  |  | 35 | 30 | 3 | 6 | 5 | 
CC1(NS(=O)(=O)Nc2nccc(Cc3cc(C(N)=O)c(Nc4ccc(I)cc4F)c(F)c3F)c2F)CC1 [Compound A-23, 3,4-Difluoro-2-(2-fluoro-4-iodoanilino)-5-[[3-fluoro-2-[(1-methylcyclopropyl)sulfamoylamino]pyridin-4-yl]methyl]benzamide] | 5 | 5 | 1 | < 1 | 35 |  |  |  | 
CNS(=O)(=O)Nc1cc(Cc2cc(C(N)=O)c(Nc3ccc(I)cc3F)c(F)c2F)ccn1 [Compound C-3, 3,4-difluoro-2-(2-fluoro-4-iodoanilino)-5-[[2-(methylsulfamoylamino)pyridin-4-yl]methyl]benzamide] | 3 | 1 | 0.4 | 9 | 12 |  |  |  | 
NC(=O)c1cc(Cc2cccc(NS(=O)(=O)C3CCC3)c2F)c(F)c(F)c1Nc1ccc(I)cc1F [Compound E-20, 5-[[3-(Cyclobutylsulfonylamino)-2-fluorophenyl]methyl]-3,4-difluoro-2-(2-fluoro-4-iodoanilino)benzamide] | 13 | 37 | 11 | 18 | 467 |  |  |  | 
NC(=O)c1cc(Cc2cccc(NS(=O)(=O)C3COC3)c2F)c(F)c(F)c1Nc1ccc(I)cc1F [Compound E-21] | 24 | 30 | 14 | 13 | 189 |  |  |  | 
CCNS(=O)(=O)Nc1nccc(Cc2cc(C(N)=O)c(Nc3ccc(I)cc3F)cc2F)c1F [Compound I-2, 5-[[2-(Ethylsulfamoylamino)-3-fluoropyridin-4-yl]methyl]-4-fluoro-2-(2-fluoro-4-iodoanilino)benzamide] | 3 | 25 | 11 | 12 | 47 |  |  |  | 
CNS(=O)(=O)Nc1nccc(Cn2cc(C(N)=O)c(Nc3ccc(SC)cc3F)c(F)c2=O)c1F [Compound N-3, 5-Fluoro-1-[[3-fluoro-2-(methylsulfamoylamino)pyridin-4-yl]methyl]-4-(2-fluoro-4-methylsulfanylanilino)-6-oxopyridine-3-carboxamide] |  |  |  | 19 | 4 | 5 | 475 | 311 | 
NC(=O)c1cc(Cc2cccc(NS(=O)(=O)CCCF)c2F)c(F)c(F)c1Nc1ccc(I)cc1F [Compound E-15, 3,4-Difluoro-5-[[2-fluoro-3-(3-fluoropropylsulfonylamino)phenyl]methyl]-2-(2-fluoro-4-iodoanilino)benzamide] | 4 | 20 | 7 | 21 | 287 |  |  |  | 
CCCS(=O)(=O)Nc1cccc(Cc2cc(C(N)=O)c(Nc3ccc(I)cc3F)c(F)c2F)c1F [Compound E-18, 3,4-Difluoro-2-(2-fluoro-4-iodoanilino)-5-[[2-fluoro-3-(propylsulfonylamino)phenyl]methyl]benzamide] | 5 | 7 | 8 | 29 | 366 |  |  |  | 
C#Cc1ccc(Nc2c(C(N)=O)cc(Cc3ccnc(NS(=O)(=O)NCCC)c3F)c(F)c2F)c(F)c1 [Compound A-20, 2-(4-ethynyl-2-fluoroanilino)-3,4-difluoro-5-[[3-fluoro-2-(propylsulfamoylamino)pyridin-4-yl]methyl]benzamide] |  |  |  | 14 | 23 | 2 | 7 | 6 | 
CCS(=O)(=O)Nc1nccc(Cc2cc(C(N)=O)c(Nc3ccc(I)cc3F)c(F)c2F)c1F [Compound A-38, 5-[[2-(Ethylsulfonylamino)-3-fluoropyridin-4-yl]methyl]-3,4-difluoro-2-(2-fluoro-4-iodoanilino)benzamide] | 3 | 66 | 15 | 17 | 16 |  |  |  | 
CNS(=O)(=O)Nc1nccc(Cc2cc(C(=O)NOC)c(Nc3ccc(Cl)cc3F)c(F)c2F)c1F [Compound G-4, 2-(4-Chloro-2-fluoroanilino)-3,4-difluoro-5-[[3-fluoro-2-(methylsulfamoylamino)pyridin-4-yl]methyl]-N-methoxybenzamide] | 4 | 28 | 12 | 26 | 53 |  |  |  | 
CCS(=O)(=O)Nc1cccc(Cc2cc(C(=O)NC3CC3)c(Nc3ccc(I)cc3F)n(C)c2=O)c1F [Compound K-8, N-Cyclopropyl-5-[[3-(ethylsulfonylamino)-2-fluorophenyl]methyl]-2-(2-fluoro-4-iodoanilino)-1-methyl-6-oxopyridine-3-carboxamide] | 14 | 68 | 29 | 103 | 209 |  |  |  | 
CNS(C)(=O)=Nc1cc(Cc2cc(C(N)=O)c(Nc3ccc(I)cc3F)c(F)c2F)ccn1 (stereo not shown) [Compound C-4, 3,4-Difluoro-2-(2-fluoro-4-iodoanilino)-5-[[2-[[methyl-(methylamino)-oxo-λ6-sulfanylidene]amino]pyridin-4-yl]methyl]benzamide] | 23 | 7 | 43 | 40 | 224 |  |  |  | 
CNS(=O)(=O)Nc1nccc(Cc2cc(C(N)=O)c(Nc3ccc(Br)cc3F)c(F)c2F)c1F [Compound A-27, 2-(4-bromo-2-fluoroanilino)-3,4-difluoro-5-[[3-fluoro-2-(methylsulfamoylamino)pyridin-4-yl]methyl]benzamide] | 7 | 24 | 10 | 4 | 32 |  |  |  | 
CCS(=O)(=O)Nc1cccc(Cc2cc(C(=O)NC3CC3)c(Nc3ccc(I)cc3F)c(F)c2F)c1F [Compound D-8, N-Cyclopropyl-5-[[3-(ethylsulfonylamino)-2-fluorophenyl]methyl]-3,4-difluoro-2-(2-fluoro-4-iodoanilino)benzamide] | 21 | 66 | 8 | 20 | 161 |  |  |  | 
NC(=O)c1cc(Cc2ccnc(NS(=O)(=O)NC3CCC3)c2F)c(F)c(F)c1Nc1ccc(I)cc1F [Compound A-32, 5-[[2-(Cyclobutylsulfamoylamino)-3-fluoropyridin-4-yl]methyl]-3,4-dif luoro-2-(2-fluoro-4-iodoanilino)benzamide] | 6 | 7 | 5 | 19 | 25 |  |  |  | 
CNS(=O)(=O)Nc1nccc(Cc2cc(C(N)=O)c(Nc3ccc(I)cc3C)c(F)c2F)c1F [Compound C-5, 3,4-Difluoro-5-[[3-fluoro-2-(methylsulfamoylamino)pyridin-4-yl]methyl]-2-(4-iodo-2-methylanilino)benzamide] | 3 | 22 | 4 | 29 | 56 |  |  |  | 
NC(=O)c1cc(Cc2ccnc(NS(=O)(=O)NC3CCOCC3)c2F)c(F)c(F)c1Nc1ccc(I)cc1F [Compound A-29] |  | 28 | 6 | 18 | 14 | 11 |  |  | 
CC(O)CNS(=O)(=O)Nc1nccc(Cc2cc(C(N)=O)c(Nc3ccc(I)cc3F)c(F)c2F)c1F (racemic) [Compound A-17, (+/-)-3,4-difluoro-5-[[3-fluoro-2-(2-hydroxypropylsulfamoylamino)pyridin-4-yl]methyl]-2-(2-fluoro-4-iodoanilino)benzamide] |  | 53 | 15 | 6 |  | 4 |  |  | 6
